Values quoted from earlier work as cited in US7857962B2, “Potentiometric electrode, gradient polymer, uses and method of preparation therefor” (Universiteit Antwerpen, priority 2004, dated 2010).

Conditions: for Log P: organic acid analytes, n-octanol/water; for log P: basic drugs named for comparison

Row | SMILES | Log P | log P
1 | O=C(O)/C=C/C(=O)O [Fumaric, fumaric acid] | +0.49 | 
2 | CC(O)C(=O)O (centres unmarked) [Lactic, lactic acid] | −1.31 | 
3 | O=C(O)CC(O)C(=O)O (centres unmarked) [Malic, malic acid] | −1.22 | 
4 | O=C(O)CCC(=O)O [Succinic, succinic acid] | −1.11 | 
5 | O=C(O)C(O)C(O)C(=O)O (centres unmarked) [Tartaric, tartaric acid] | −1.39 | 
6 | Nc1c(Br)cc(Br)cc1CN[C@H]1CC[C@H](O)CC1 [ambroxol, reference compound] |  | 3.24
7 | CN(Cc1cc(Br)cc(Br)c1N)C1CCCCC1 [bromhexine, reference compound] |  | 4.03
8 | CC(C)(C)NCC(O)c1cc(Cl)c(N)c(Cl)c1 (centres unmarked) [clenbuterol, reference compound] |  | 2.91
